According to patent US20240174625A1, “COMPOSITIONS AND METHODS FOR TREATING TAUOPATHIES” (The Regents of the University of California, priority 2021, published 2024):

Assays:
[1] = tested on: superoxide dismutase 1 (SOD1); assay: SOD1 protein level in human primary cortical neurons; type: cell-based; conditions: 50 μM, 48 hrs
Experimental: FIG. 11. Potential applications of NPEPPS enhancer JMM series on other neurodegenerative diseases. JMM001 (Cp 1) at 50 μM reduces protein levels of huntingtin (htt), SOD1, ataxin, and alpha-synuclein in human primary cortical neurons. Neurons were treated with 50 μM JMM001 or 10 uM bestatin for 48 hrs. N=3-4±SEM.

[2] = biological target: Recombinant human (rh) NPEPPS protein (Homo sapiens, UniProt P55786); assay: Cell-free thermal shift (protein stability) assay; type: binding; conditions: concentration-dependent
Experimental: Cell-free thermal shift assay: Recombinant human (rh) NPEPPS protein was diluted in Buffer A (20 mM Tris, 137 mM NaCl, pH 7.5) to a final concentration of 1.25 μM and added to a pre-chilled 384-well microplate (Biorad HSR4801). JMM001, dimethyl sulfoxide (DMSO, Sigma D2650), or NPEPPS inhibitor puromycin dihydrochloride (Sigma P8833) in 1 μl was then added to each well, mixed with gentle aspiration, and incubated with rhNPEPPS for 3 min on ice. SYPRO Orange (Invitrogen S6651) was diluted to 200× concentration in Buffer A and added to each well achieving a final dilution of 1:20, mixed with gentle aspiration. The final assay volume was 20 μl. The plate was sealed followed by a brief spin-down. The samples were analyzed on a Real-time PCR system (Roche LightCycler 480) from 20° C. to 85° C. at a continuous acquisition rate of 5 measurements/° C. and measured at excitation/emission wavelengths of 533/580 nm. Melting temperature is calculated as the lowest derivative of the fluorescence signal as a function of the temperature as previously described^7,18.

[3] = tested on: rhodopsin::EGFP-MAPT transgenic zebrafish expressing the Tau^P301L mutation; assay: Photoreceptor neurodegeneration in a zebrafish model of tauopathy; type: in vivo
Experimental: The rhodopsin::EGFP-MAPT transgenic zebrafish expressing the Tau^P301L mutation is generated and maintained as previously described^22,23. Tau^P301L expression is restricted to the rods of the retina. Photoreceptor image and quantification in central retina sections in the region of the optic nerve head is performed as previously described^2223.

[4] = biological target: T1, NPEPPS (Homo sapiens, UniProt P55786); assay: Cellular thermal shift assay (CETSA) in HEK293T cell lysates; type: binding; conditions: concentration-dependent
T1 construct: endogenous in cells; host or cells: HEK293T
Experimental: Cellular thermal shift analysis (CETSA) was conducted at Pelago Bioscience. Briefly, HEK293T cells were harvested and suspended in an experimental Buffer B (20 mM HEPES, 138 mM NaCl, 5 mM KCl, 2 mM CaCl2), 1 mM MgCl2, pH7.4) at a density of 4×10^7 cells/ml. Cell suspension was lysed by three rounds of freeze-thaw cycles with liquid nitrogen and clarified at 20,000 g for 20 min at 4° C. Compounds diluted to 2× final concentration (final solution contains 1% DMSO) in Buffer B were added to equal volume of clarified cell lysates and incubated at 37° C. for 30 min with continuous rotation. 1% DMSO was used as a negative control in parallel. The treated cell lysates were then divided into 60 μl aliquots and subjected to a 12-step heat challenge between 50° C. and 62° C. for 3 min. For the concentration-dependent analyses, clarified cell lysates in 30 aliquots were mixed with an equal volume of compounds or DMSO in Buffer B at 2× intended compound concentration and incubated at 37° C. for 30 min with continuous rotation. JMM001-treated lysates were then heat challenged at 59° C. as determined from its corresponding cellular thermal shift curve. All treated lysates were immediately centrifugated at 20,000 g for 20 min at 4° C. prior to immunoblotting analysis. […] The obtained intensities were plotted as the luminescence count normalized to a relevant temperature or control count as specified.

T1 sequence (P55786 whole entry): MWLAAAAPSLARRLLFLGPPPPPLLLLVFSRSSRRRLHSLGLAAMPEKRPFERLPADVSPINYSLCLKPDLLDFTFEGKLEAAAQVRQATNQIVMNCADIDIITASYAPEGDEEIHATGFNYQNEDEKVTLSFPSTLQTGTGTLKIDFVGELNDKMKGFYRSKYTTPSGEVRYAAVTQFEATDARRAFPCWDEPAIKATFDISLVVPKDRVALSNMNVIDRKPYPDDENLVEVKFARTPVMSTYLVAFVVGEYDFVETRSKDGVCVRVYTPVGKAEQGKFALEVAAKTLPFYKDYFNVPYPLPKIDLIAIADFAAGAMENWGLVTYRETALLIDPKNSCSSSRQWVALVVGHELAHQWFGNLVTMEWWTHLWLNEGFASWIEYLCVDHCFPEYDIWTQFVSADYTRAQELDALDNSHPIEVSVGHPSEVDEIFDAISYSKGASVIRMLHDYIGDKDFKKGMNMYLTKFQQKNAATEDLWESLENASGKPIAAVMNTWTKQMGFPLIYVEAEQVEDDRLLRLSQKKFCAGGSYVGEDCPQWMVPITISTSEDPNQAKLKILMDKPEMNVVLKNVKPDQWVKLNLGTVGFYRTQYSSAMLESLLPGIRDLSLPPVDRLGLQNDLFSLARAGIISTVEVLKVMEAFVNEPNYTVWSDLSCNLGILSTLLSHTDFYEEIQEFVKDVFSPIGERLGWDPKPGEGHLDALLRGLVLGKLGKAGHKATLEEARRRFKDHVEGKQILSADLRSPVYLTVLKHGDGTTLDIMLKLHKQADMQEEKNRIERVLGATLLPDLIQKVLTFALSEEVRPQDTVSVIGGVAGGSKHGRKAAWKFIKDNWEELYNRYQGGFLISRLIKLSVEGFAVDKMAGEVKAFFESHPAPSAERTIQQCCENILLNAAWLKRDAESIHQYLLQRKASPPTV
Chain of Recombinant human (rh) NPEPPS protein (P55786 whole entry): as above

protein level of SOD1 [1]: reduces | thermal shift of NPEPPS [4]: significant thermal shift
SMILES: COc1ccc(CNc2nsc3ccccc23)cc1OC [JMM001]
melting temperature of rhNPEPPS [2]: significant, concentration-dependent increases in melting temperature | photoreceptor degeneration ([3]; 0.01 and 0.03 μM, compared to DMSO control): rescue | retinal photoreceptor degeneration ([3]; 0.01 and 0.05 μM): rescued
